Measurements reported in patent US8067590B2, “Pyridone derivates with MCH antagonistic activity and medicaments comprising these compounds” (Boehringer Ingelheim International GmbH, priority 2006, dated 2011).

Experiments:
[1] = molecular target: T1, hMCH-1R (Homo sapiens, UniProt Q99705); experiment: MCH-1 receptor binding test (125I-MCH binding to membranes of hMCH-1R transfected CHO/Galpha16 cells)
T1 construct: expressed in transfected cells; host or cells: CHO/Galpha16 cells (membranes)
Procedure: Membranes from CHO/Galpha16 cells stably transfected with human hMCH-1R are resuspended using a syringe (needle 0.6×25 mm) and diluted in test buffer (50 mM HEPES, 10 mM MgCl2, 2 mM EGTA, pH 7.00; 0.1% bovine serum albumin (protease-free), 0.021% bacitracin, 1 μg/ml aprotinin, 1 μg/ml leupeptin and 1 μM phosphoramidone) to a concentration of 5 to 15 μg/ml.
After the incubation the reaction is filtered using a cell harvester through 0.5% PEI treated fibreglass filters (GF/B, Unifilter Packard). The membranebound radioactivity retained on the filter is then determined after the addition of scintillator substance (Packard Microscint 20) in a measuring device (TopCount of Packard). The non-specific binding is defined as bound radioactivity in the presence of 1 micromolar MCH during the incubation period.
The analysis of the concentration binding curve is carried out on the assumption of one receptor binding site.

[2] = molecular target: T2, MCH-1R (Rattus norvegicus, UniProt P97639); parameters: host or cells: rats (in vivo); conditions: rats; cited from earlier work
[3] = molecular target: T2, MCH-1R; parameters: host or cells: whole animals (in vivo); conditions: animals treated with the antagonist; cited from earlier work

T1 sequence (Q99705 whole entry): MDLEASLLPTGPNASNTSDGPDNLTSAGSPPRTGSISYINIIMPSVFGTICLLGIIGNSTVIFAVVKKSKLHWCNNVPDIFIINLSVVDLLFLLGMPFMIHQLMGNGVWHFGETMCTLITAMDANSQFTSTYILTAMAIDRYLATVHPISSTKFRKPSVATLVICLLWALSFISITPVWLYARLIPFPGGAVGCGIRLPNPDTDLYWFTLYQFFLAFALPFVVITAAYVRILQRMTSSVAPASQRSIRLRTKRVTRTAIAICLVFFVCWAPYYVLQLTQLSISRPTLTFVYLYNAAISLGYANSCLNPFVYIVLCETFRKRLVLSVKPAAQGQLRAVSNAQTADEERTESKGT
T2 sequence (P97639 whole entry): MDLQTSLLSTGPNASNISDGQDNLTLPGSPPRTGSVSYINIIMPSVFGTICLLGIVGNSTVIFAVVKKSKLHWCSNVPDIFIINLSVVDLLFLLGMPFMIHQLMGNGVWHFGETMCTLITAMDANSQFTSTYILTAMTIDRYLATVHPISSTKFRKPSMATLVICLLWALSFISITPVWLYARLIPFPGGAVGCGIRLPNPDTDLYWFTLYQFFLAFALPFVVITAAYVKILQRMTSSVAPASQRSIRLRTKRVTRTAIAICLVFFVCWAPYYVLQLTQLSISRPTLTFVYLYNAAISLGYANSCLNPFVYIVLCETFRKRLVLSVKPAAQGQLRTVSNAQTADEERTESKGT

Row | Compound | IC50 [1] [nM] | further results
1 | CC(c1ccc(C(=O)Cn2ncc(OCc3ccccc3)cc2=O)cc1)N1CCN(C)CC1 (centres unmarked) [Example 47.5] | 27 | 
2 | O=C(Cn1ccc(OCc2ccccc2)cc1=O)c1ccc2c(c1)CCN(C(=O)C(F)(F)F)CC2 [Example 22.1, 4-Benzyloxy-1-{2-oxo-2-[3-(2,2,2-trifluoro-acetyl)-2,3,4,5-tetrahydro-1H-3-benzazepin-7-yl]-ethyl}-1H-pyridin-2-one] | 51 | 
3 | O=C(Cn1ncc(OCc2ccccc2)cc1=O)c1ccc(CN2CCC(O)CC2)cc1 [Example 32.2] | 12 | 
4 | O=C(Cn1ncc(OCc2ccccc2)cc1=O)c1ccc2c(c1)CNCC2 [Example 41.1, 5-Benzyloxy-2-[2-oxo-2-(1,2,3,4-tetrahydro-isoquinolin-7-yl)-ethyl]-2H-pyridazin-3-one] | 17 | 
5 | CC(=O)NC1CCN(Cc2ccc(CCn3ccc(OCc4ccsc4)cc3=O)cc2)CC1 [Example 4.2, N-[1-(4-{2-[2-Oxo-4-(thiophen-3-ylmethoxy)-2H-pyridin-1-yl]-ethyl}-benzyl)-piperidin-4-yl]-acetamide] | 8 | 
6 | O=c1cc(OCc2ccc(Br)cn2)ccn1CC(O)c1ccc2c(c1)CNCC2 (centres unmarked) [Example 39.1, 4-(5-Bromo-pyridin-2-ylmethoxy)-1-[2-hydroxy-2-(1,2,3,4-tetrahydro-isoquinolin-7-yl)-ethyl]-1H-pyridin-2-one] | 34 | 
7 | O=c1cc(OCc2ccccc2)ccn1CCc1ccc(CN2CCCC2)s1 [Example 28.1, 4-Benzyloxy-1-[2-(5-pyrrolidin-1-ylmethyl-thiophen-2-yl)-ethyl]-1H-pyridin-2-one] | 26 | 
8 | CC1(O)CCN(Cc2ccc(C(=O)Cn3ncc(OCc4ccccc4)cc3=O)cc2)CC1 [Example 32.3] | 9 | 
9 | O=c1cc(OCc2ccccc2)ccn1CCc1ccc2c(c1)CCNC2 [Example 27.2, 4-Benzyloxy-1-[2-(1,2,3,4-tetrahydro-isoquinolin-6-yl)-ethyl]-1H-pyridin-2-one] | 8 | 
10 | O=C(Cn1cnc(OCc2ccccc2)cc1=O)c1ccc(CN2CCCCC2)cc1 [Example 34.3] | 16 | 
11 | CN1CCc2cc(C(=O)Cn3ccc(OCc4ccccc4)cc3=O)ccc2C1 [Example 46.2, 4-Benzyloxy-1-[2-(2-methyl-1,2,3,4-tetrahydro-isoquinolin-6-yl)-2-oxo-ethyl]-1H-pyridin-2-one] | 21 | 
12 | CN1CCN(Cc2ccc(C(=O)Cn3ncc(OCc4ccccc4)cc3=O)cc2)CC1 [Example 32.10] | 23 | 
13 | CC1(O)CCN(Cc2ccc(C(=O)Cn3ccc(OCc4ccccc4)cc3=O)cc2)CC1 [Example 29.4] | 16 | 
14 | O=C(Cn1ccc(OCc2ccccc2)cc1=O)c1ccc(CN2CCC(O)CC2)cc1 [Example 29.3, 4-Benzyloxy-1-{2-[4-(4-hydroxy-piperidin-1-ylmethyl)-phenyl]-2-oxo-ethyl}-1H-pyridin-2-one] | 16 | 
15 | O=c1cc(OCc2ccco2)ccn1CCc1ccc(CN2CCCC2)cc1 [Example 6.1, 4-(Furan-2-ylmethoxy)-1-[2-(4-pyrrolidin-1-ylmethyl-phenyl)-ethyl]-1H-pyridin-2-one] | 13 | 
16 | O=c1cc(OCc2ccccc2)cnn1CCc1ccc(CN2CCCC2)cc1 [Example 21.2] | 3 | 
17 | COCC1=C(C(=O)OC)[C@H](c2ccc(F)c(F)c2)N(C(=O)NCCCN2CCC(c3cccc(NC(C)=O)c3)CC2)C(=O)N1 [SNAP-7941] |  | effects in behavioural experiments [2]: anxiolytic and antidepressant effects; body weight effect in long term trials [3]: lose significant amounts of weight
18 | O=C(Cn1ccc(OCc2ccccc2)cc1=O)c1ccc(CN2CC(O)C2)cc1 [Example 29.13] | 18 | 
19 | CN1CCc2ccc(C(=O)Cn3ncc(OCc4ccccc4)cc3=O)cc2C1 [Example 42.1, 5-Benzyloxy-2-[2-(2-methyl-1,2,3,4-tetrahydro-isoquinolin-7-yl)-2-oxo-ethyl]-2H-pyridazin-3-one] | 14 | 
20 | O=c1cc(OCc2ccccc2)ccn1CCc1ccc2c(c1)CCNCC2 [Example 23.2, 4-Benzyloxy-1-[2-(2,3,4,5-tetrahydro-1H-3-benzazepin-7-yl)-ethyl]-1H-pyridin-2-one] | 7 | 
21 | O=C(Cn1ncc(OCc2ccccc2)cc1=O)c1ccc(CNCC2CC2)cc1 [Example 32.8] | 6 | 
22 | O=C(Cn1ncc(OCc2ccc(Cl)cn2)cc1=O)c1ccc(CN2CCCC2)cc1 [Example 33.8] | 19 | 
23 | CN1Cc2ccc(C(=O)Cn3ccc(OCc4ccccc4)cc3=O)cc2C1 [Example 37.2, 4-Benzyloxy-1-[2-(2-methyl-2,3-dihydro-1H-isoindol-5-yl)-2-oxo-ethyl]-1H-pyridin-2-one] | 33 | 
24 | CN1CCc2sc(C(=O)Cn3ncc(OCc4ccccc4)cc3=O)cc2C1 [Example 44.2, 5-Benzyloxy-2-[2-(5-methyl-4,5,6,7-tetrahydro-thieno[3,2-c]pyridin-2-yl)-2-oxo-ethyl]-2H-pyridazin-3-one] | 20 | 
25 | O=C(Cn1ccc(OCc2ccccc2)cc1=O)c1ccc(CN2CC[C@@H](O)C2)cc1 [Example 29.11] | 14 | 
